Test results as given in ChEMBL document CHEMBL1201862, “PubChem BioAssay data set” (2004).
Activity calls are given as the source filed them.

Legend:
[1] = target: Metabotropic glutamate receptor 3 (Rattus norvegicus, UniProt P31422); assay: inhibitors of rat mGlu3 Galpha15 signaling – TREx293 cells, calcium flux, mGlu3 NAM project, dose response (AID 651840); assay type: functional
[2] = target: Heat shock protein HSP 90-alpha (Homo sapiens, UniProt P07900); assay type: functional, organism-based
[3] = target: Disintegrin and metalloproteinase domain-containing protein 17 (Homo sapiens, UniProt P78536); assay: exosite inhibitors of ADAM17, dose response, biochemical (AID 743260)
[4] = inhibition of ADAM10 peptide cleavage – biochemical, FRET peptide substrate, recombinant human ADAM10, selectivity assay for ADAM17 exosite inhibitor project, dose response (AID 743259);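 also: ADAM10 enzyme cleaving a FRET peptide substrate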
[5] = T. cruzi growth inhibition in host cells, dose response, cell-based, plate reader, dry powder, set 2 (AID 652275); assay type: functional
[6] = anti-trypanosomal activity in BESM host cells – imaging, CA-I/72 strain, bovine embryo skeletal muscle, dry powder, dose response (AID 651885); assay type: functional, cell-based
[7] = target: Kappa-type opioid receptor (Homo sapiens, UniProt P41145); assay: kappa opioid receptor antagonism potency – cell-based, fluorescence, dose response, late-stage follow-up (AID 652032); assay type: functional
[8] = target: T1, Botulinum neurotoxin type A (Clostridium botulinum (strain Hall / ATCC 3502 / NCTC 13319 / Type A), UniProt P0DPI1); assay: High-throughput multiplex microsphere dose response for inhibitors of toxin protease, specifically Botulinum neurotoxin light chain A protease, compounds from Powder Set 01.; assay type: functional, Clostridium botulinum A str. ATCC 3502; conditions: read-out: EC50_MICROM
Lethal factor = Lethal factor (Bacillus anthracis, UniProt P15917); assay: High-throughput multiplex microsphere dose response for inhibitors of toxin protease, specifically Lethal Factor protease, compounds from Powder Set 01.; assay type: functional, Bacillus anthracis str. A2012; conditions: read-out: EC50_MICROM
[9] = target: T1, Botulinum neurotoxin type A; assay: Confirmatory FRET assay using full length substrates for Botulinum neurotoxin light chain A protease, with Powder Set01.; assay type: functional
[10] = activation of miR-122 Renilla sensor silencing – cell-based, Huh7 psiCHECK-miR122, Renilla luciferase, cherry-picked, dose response (AID 651956); assay type: functional;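 also: huh7 hepatoma cells stably carrying a psiCHECK-2 miR-122 sensor plasmid; renilla luciferase signal reporting endogenous miR-122 activity after 48 h compound exposure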
[11] = reduced cellular PGC1a acetyl-lysine signal – cell-based, cherry-picked samples, dose response (AID 720514); assay type: functional;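 also: potency may reflect raised or lowered acetylation signal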
[12] = general mammalian cell viability loss – activator set, cherry-pick, cytotoxicity control for miR-122 modulator project, dose response (AID 720690); assay type: functional, cell-based;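 also: HEK293T human cells scored for general mammalian cytotoxicity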
[13] = P. falciparum Dd2 growth inhibitors, dose response, SYBR Green, cherry-picked samples (AID 1159567); assay type: functional, cell-based
[14] = toxicity to human hepatoma HepG2 cells – cell-based, cherry-picked samples, cytotoxicity control, dose response (AID 1159577); assay type: functional

T1 sequence (P0DPI1 2-448 limits assumed): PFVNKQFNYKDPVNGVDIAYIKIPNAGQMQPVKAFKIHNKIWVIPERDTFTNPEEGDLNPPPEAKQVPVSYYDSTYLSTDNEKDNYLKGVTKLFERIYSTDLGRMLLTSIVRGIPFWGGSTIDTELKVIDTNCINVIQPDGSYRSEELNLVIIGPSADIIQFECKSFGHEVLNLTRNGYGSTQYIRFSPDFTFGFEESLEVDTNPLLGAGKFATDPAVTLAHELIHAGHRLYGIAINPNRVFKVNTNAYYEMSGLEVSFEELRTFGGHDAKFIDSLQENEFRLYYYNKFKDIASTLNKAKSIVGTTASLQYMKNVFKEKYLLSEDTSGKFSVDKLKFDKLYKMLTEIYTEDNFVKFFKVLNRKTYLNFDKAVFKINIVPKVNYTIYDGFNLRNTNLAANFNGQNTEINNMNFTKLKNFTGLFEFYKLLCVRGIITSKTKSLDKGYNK
Chain of Disintegrin and metalloproteinase domain-containing protein 17 (P78536 whole entry, the tested form may be a part): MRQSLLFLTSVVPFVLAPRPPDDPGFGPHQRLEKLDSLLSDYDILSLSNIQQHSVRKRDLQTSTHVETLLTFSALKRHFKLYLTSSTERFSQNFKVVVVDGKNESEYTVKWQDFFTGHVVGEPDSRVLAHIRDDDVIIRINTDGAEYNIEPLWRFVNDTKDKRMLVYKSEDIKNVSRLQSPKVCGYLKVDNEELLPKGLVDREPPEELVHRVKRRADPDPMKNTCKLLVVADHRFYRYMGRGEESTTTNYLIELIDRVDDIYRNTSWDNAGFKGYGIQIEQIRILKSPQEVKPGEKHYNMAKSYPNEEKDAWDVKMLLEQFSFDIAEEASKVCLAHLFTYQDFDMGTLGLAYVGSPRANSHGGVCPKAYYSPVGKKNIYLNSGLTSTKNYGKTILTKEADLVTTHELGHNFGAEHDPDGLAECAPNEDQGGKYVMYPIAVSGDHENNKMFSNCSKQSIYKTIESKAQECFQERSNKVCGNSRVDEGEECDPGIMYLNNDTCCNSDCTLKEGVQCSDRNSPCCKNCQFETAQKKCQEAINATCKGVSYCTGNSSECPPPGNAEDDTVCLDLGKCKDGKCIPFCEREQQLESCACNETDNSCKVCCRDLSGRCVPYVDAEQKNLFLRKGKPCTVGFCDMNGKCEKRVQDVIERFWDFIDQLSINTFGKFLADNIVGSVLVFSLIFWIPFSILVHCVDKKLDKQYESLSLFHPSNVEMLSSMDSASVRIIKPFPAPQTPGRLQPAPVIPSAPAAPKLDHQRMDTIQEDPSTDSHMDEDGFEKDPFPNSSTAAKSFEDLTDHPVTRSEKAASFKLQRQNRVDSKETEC
Chain of Kappa-type opioid receptor (P41145 whole entry): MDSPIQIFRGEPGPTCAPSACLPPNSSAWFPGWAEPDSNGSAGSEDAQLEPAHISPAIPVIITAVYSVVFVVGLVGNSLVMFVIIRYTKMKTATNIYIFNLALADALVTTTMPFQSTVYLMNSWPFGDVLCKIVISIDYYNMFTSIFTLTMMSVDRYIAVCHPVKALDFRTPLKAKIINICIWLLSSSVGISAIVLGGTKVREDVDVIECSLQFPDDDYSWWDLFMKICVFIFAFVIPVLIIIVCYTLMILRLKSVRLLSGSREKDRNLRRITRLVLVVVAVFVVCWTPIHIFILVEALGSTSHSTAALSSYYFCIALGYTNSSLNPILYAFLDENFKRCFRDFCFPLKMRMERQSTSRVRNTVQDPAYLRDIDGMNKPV
Chain of Metabotropic glutamate receptor 3 (P31422 whole entry): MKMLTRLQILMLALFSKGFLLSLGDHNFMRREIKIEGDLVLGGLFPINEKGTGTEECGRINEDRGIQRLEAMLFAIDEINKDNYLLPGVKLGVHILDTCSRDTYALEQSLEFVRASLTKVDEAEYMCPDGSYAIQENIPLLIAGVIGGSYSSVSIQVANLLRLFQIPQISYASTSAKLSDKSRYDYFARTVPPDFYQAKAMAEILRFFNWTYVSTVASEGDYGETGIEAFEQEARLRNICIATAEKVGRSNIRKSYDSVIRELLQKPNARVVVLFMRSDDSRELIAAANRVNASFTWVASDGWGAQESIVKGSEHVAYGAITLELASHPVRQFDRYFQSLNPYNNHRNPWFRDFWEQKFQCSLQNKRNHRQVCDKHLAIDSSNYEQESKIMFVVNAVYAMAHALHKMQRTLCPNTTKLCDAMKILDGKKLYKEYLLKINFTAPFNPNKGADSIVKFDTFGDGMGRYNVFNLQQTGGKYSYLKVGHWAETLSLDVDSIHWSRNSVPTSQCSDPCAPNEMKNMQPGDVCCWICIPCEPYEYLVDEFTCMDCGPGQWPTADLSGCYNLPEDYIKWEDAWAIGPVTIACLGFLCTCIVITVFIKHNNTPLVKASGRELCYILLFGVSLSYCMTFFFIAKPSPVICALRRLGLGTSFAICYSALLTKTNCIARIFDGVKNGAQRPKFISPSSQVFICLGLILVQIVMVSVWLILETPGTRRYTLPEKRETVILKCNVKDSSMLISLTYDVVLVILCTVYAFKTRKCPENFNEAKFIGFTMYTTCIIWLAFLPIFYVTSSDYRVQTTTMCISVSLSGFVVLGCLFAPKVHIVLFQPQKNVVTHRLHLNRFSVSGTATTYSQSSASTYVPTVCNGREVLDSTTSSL
Chain of Lethal factor (P15917 whole entry): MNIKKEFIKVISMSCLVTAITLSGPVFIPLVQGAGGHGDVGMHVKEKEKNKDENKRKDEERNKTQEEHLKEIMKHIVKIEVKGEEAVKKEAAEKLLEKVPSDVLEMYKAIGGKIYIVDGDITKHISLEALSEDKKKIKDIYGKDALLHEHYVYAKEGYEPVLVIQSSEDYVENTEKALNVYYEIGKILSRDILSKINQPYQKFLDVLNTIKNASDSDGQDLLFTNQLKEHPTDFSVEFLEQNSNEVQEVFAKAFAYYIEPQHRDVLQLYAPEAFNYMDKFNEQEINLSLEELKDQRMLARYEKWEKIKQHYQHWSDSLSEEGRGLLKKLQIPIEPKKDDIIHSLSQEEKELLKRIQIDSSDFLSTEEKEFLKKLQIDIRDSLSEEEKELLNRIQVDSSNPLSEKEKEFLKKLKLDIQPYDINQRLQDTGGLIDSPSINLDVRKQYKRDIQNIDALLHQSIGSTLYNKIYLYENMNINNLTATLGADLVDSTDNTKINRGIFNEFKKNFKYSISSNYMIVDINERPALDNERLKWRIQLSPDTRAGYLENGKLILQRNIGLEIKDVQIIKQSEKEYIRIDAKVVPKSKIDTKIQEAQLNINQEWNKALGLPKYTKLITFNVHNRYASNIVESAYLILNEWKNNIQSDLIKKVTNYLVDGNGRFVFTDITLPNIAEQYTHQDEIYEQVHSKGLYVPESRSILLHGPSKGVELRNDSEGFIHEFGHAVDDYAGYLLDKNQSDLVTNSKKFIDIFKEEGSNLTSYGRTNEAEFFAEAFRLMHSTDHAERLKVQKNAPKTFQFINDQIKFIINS

CCC1(O)CCCN(C(=O)c2ccc(C#Cc3ccc(OC)cc3)cc2)C1 (stereo not given)
IC50 [1]: 1800 nM

OCCCn1c(C2CCCN2c2nc(-c3ccc(F)cc3)cs2)nc2cc(Cl)c(Cl)cc21 (stereo not given)
AC50 [2]: 5.05 µM (active) | IC50 [3]: > 69.5 µM (inactive) | IC50 [4]: > 69.5 µM (inactive)

C[C@@H]1CN([C@@H](C)CO)C(=O)c2cccc(NC(=O)c3ccncc3)c2O[C@H]1CN(C)Cc1ccc(Cl)cc1
AC50 [5]: 63.3 nM (active) | IC50 [6]: 20 nM (active)

COC(=O)c1cc(-c2ccccc2)cnc1N1CCC(NC2CCCCC2)CC1
IC50 [7]: 6.2 µM (active)

COc1ccc(C2CC(c3cccs3)=NN2c2nc(C)c(C(C)=O)s2)cc1OC (stereo not given)
EC50 [8]: 7.5 µM (active) | EC50 (Lethal factor): 9.6 µM (active) | EC50 [9]: 10.4 µM (active)

O=C(Nc1ccc(F)cc1)N1CCCCN2[C@H](CO)[C@H](c3ccc(C#Cc4ccccc4)cc3)[C@H]2C1
AC50 [10]: 7.46 µM (active) | AC50 [11]: 17.2 µM (active) | AC50 [12]: 7.78 µM (active) | AC50 [13]: 1.2 µM (active) | AC50 [14]: 9.51 µM (active)
